PMC9092651, “Improving Thermostability and Catalytic Activity of Glycosyltransferase From Panax ginseng by Semi-Rational Design for Rebaudioside D Synthesis” (Frontiers in Bioengineering and Biotechnology, 2022)

Target: T1, EUGT11 (Oryza sativa, UniProt Q0DPB7)
T1 construct: gene Os03g0702000
T1 sequence (Q0DPB7 1-462): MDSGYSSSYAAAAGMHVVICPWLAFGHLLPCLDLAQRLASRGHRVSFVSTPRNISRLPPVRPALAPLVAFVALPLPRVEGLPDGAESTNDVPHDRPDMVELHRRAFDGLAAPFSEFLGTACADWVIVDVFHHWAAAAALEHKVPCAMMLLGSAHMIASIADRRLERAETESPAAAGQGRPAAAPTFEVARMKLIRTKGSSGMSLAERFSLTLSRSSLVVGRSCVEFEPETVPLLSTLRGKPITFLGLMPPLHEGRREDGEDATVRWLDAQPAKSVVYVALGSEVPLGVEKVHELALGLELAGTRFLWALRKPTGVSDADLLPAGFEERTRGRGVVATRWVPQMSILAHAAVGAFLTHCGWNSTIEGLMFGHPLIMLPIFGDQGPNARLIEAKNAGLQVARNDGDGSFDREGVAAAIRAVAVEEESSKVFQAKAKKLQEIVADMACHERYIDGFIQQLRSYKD
Assay: cell-free synthesised enzyme, HPLC product detection
Conditions: 2 mM UDP-glucose, 2 mM Reb A, 50 mM PBS pH 8.0, 35 °C, 12 h; positive control

`C=C1C[C@@]23CC[C@H]4[C@@](C)(CCC[C@@]4(C)C(=O)O[C@@H]4O[C@H](CO)[C@@H](O)[C@H](O)[C@H]4O)[C@@H]2CC[C@]1(O[C@@H]1O[C@H](CO)[C@@H](O)[C@H](O[C@@H]2O[C@H](CO)[C@@H](O)[C@H](O)[C@H]2O)[C@H]1O[C@@H]1O[C@H](CO)[C@@H](O)[C@H](O)[C@H]1O)C3` [Reb A] was tested, and the “cell-free synthesised enzyme, HPLC product detection” value was “the glycosylated product of Reb A catalyzed by EUGT11 had the same HPLC retention time”.
